This note sets out measurements from patent publication US20220280607A1, “Treatment of Heart Defects and Conditions in Pediatric Patients” (University of Pittsburgh - Of the Commonwealth System of …, priority 2019, published 2022).

In assay [1] the test system is human fetal cardiomyocytes. Nature of the assay: Cytokinesis failure in cultured human fetal cardiomyocytes (β-adrenergic receptor signaling pathway studies). Format: cell-based. As to the method:
Primary cardiomyocyte culture experiments: Neonatal (mouse or rat) cardiomyocytes or human fetal cardiomyocytes were plated in 4-well chamber slides pre-coated with fibronectin (10 μg/ml) at a density of 200,000 cells/well and cultured with DMEM/high glucose (for mouse and rat cardiomyocytes) or IMDM (for fetal human cardiomyocytes) containing 10% fetal bovine serum (FBS) and recombinant neuregulin 1 (rNRG1, 100 nanograms per milliliter (ng/ml)) overnight. All treatments and BrdU (30 micromolar (μM)) were added on the next day.
β-adrenergic receptor signaling pathway studies: Forskolin (10 μM), propranolol (10 μM), dobutamine (10 μM), or a combination of propranolol (10 μM) and dobutamine (10 μM) were added to the culture from day 1 to day 3. The cells were collected for examining gene expression or immunofluorescence microscopy at day 3.
Cardiomyocytes cultured on glass surfaces. […] The BrdU-positive nuclei, cell-cell boundaries (Pan-Cadherin antibody), and cardiomyocyte markers (α-actinin or troponin I antibody) were labeled by immunofluorescence. The stained cells were imaged under Nikon confocal microscope. The binucleated cardiomyocytes and all BrdU-positive cardiomyocytes were quantified using Fiji software.

In assay [2] the test system is cardiomyocytes from infants with ToF/PS. Put plainly: ToF/PS myocardium tissue (organotypic) culture: binucleated BrdU-labeled cardiomyocytes. Format: cell-based, human. The following applies: propranolol 10 μM + dobutamine 10 μM, ToF/PS organotypic cultures, FIG. 14E. The protocol: ToF/PS myocardium tissue culture: Discarded myocardium samples were collected during ToF/PS surgery, cut into ˜1 mm^3 tissue blocks, and cultured in IMDM media containing 10% FBS, recombinant neuregulin 1 (rNRG1, 100 ng/ml), and BrdU (30 μM) for 6 days. Samples were treated with forskolin (10 μM), propranolol (10 μM), dobutamine (10 μM), or a combination of propranolol (10 μM) and dobutamine (10 μM).
Cultured ToF/PS myocardium. Cardiomyocytes were isolated from cultured myocardium with the fixation-digestion method. After denaturing the DNA with 2N HCl and neutralization with 2 Normal (N) sodium hydroxide (NaOH), immunofluorescence antibody labeling was performed in solution. The proportion of binucleated and BrdU-positive was quantified with a Nikon A1R microscope.

The test system of assay [3] is adult mouse heart after myocardial infarction. Put plainly: Neonatal propranolol treatment followed by adult baseline analysis and myocardial infarction (LAD ligation) with cardiac MRI, AFOG histology and stereology. Format: in vivo. As to the method:
Mouse myocardial injury model: ICR mice were treated with propranolol (10 μg/g, 2 i.p. injections/day) from P1 to P12. Then, cardiac injury was induced to male mice via performing left anterior descending artery (LAD) ligation at the age of P40 to P60. Briefly, the mice were anesthetized with 4% isoflurane, intubated, and ventilated with a stroke volume of 225 microliters (μl) at 145 breaths/minute. The hearts were exposed by performing thoracotomy and the LAD coronary artery was tied with 8-0 nylon suture. After the chest was […] with 6-0 suture, bupivacaine (8 μg/g) was locally administered through subcutaneous injection. The mice were kept intubated without isoflurane at room temperature until waking up from the anesthesia. Bupivacaine (8 μg/g) was administered by subcutaneous injection in the following 3 days (1 day post injury (dpi) to 3 dpi). The heart function after LAD ligation was measured by cardiac MRI at 1-3 days post injury (dpi, acute injury period) and 10-12 dpi (recovery period), respectively.
Quantification of cardiomyocytes with unbiased stereology: Mouse hearts were washed in cardioplegia solution (PBS, […] potassium chloride (KCl)), weighed, and fixed with 3.7% formaldehyde at room temperature overnight. The hearts were then placed in 30% sucrose at 4° C. for 48 hours. The atria were cut off and the ventricles were embedded in OCT and sectioned on a Leica CM1950 cryostat in cross-sectional orientation (thickness 15 μm), resulting in 75-80 slides/heart with 4 sections each. For random systematic sampling we used a random number generator ranging between […] to determine the first slide and then selected every 17th slide for staining. Myocardial volume and scar were quantified by point count method on AFOG-stained sections. Briefly, tissue sections were stained with Acid fuchsin-orange G (AFOG; Polizzotti et al.) and photomicrographs were taken on a Leica MZ26 dissector microscope (objective lens 10×). Areas of myocardium (red after AFOG staining) and scar (blue after AFOG staining) were quantified using ImageJ (version 1.51s). The image was overlaid with a grid to determine area per point. The distance between selected sections was calculated (17th slide×4 sections/slide×15 μm section thickness). The LV myocardial volume was measured by counting the number of grids on both LV myocardium and the scar region. We used the optical dissector method to determine the volume density of cardiomyocyte nuclei. The optical dissector operates optimally at 3 μm distance between lookup and counting frames. Adult mouse hearts were sectioned with a cryostat set at 15 μm. Slides were stained with α-actinin and Hoechst and imaged with an A1R laser-scanning confocal microscope (×60 oil lens).
Briefly, the immunofluorescence stained sections were imaged using a Nikon A1R confocal microscope. We selected four random spots on the technically-best section from each slide and analyzed 20 random samples from each heart. The total number of positive cardiomyocyte nuclei per heart was counted and the mean per sample volume was calculated. Total number of cardiomyocytes (endowment) was calculated as: Number of cardiomyocytes=Number of cardiomyocyte nuclei/(Mono %+2×Bi %[…]+4×Tetra %).
Adult mouse cardiac MRI: Mice were anesthetized with 4% isoflurane mixed with room air in an induction box for 1 to 3 minutes. The depth of anesthesia was monitored by toe reflex, extension of limbs, and spine positioning. Once an appropriate depth of anesthesia was established, mice were placed on a custom-built mouse holder and the anesthesia was maintained by 1.5 to 2% isoflurane with 100% oxygen via a nose cone. […] The respiration waveform was automatically processed to detect inspiration, expiration, and respiration rate. In-vivo cardiac MRI (CMR) was carried out on a Bruker Biospec 7T/30 system (Bruker Biospin MRI, Billerica, Mass.) with the 35-mm quadrature coil for both transmission and reception.

On to `CC(C)NCC(O)COc1cccc2ccccc12` (centres unmarked) [propranolol, 1-naphthalen-1-yloxy-3-(propan-2-ylamino)propan-2-ol], for which the Ect2-positive midbodies result in assay [1] (human fetal cardiomyocytes in cytokinesis, immunofluorescence microscopy, FIG. 14D) is “increased”. Moreover, the “block of the dobutamine-stimulated increase in cardiomyocyte cytokinesis failure” value in assay [1] (propranolol 10 μM + dobutamine 10 μM, human fetal cardiomyocytes, FIG. 14C) is on record as “completely”. Besides, the “inhibition of the dobutamine-stimulated increase in binucleated cardiomyocytes” value in assay [2] is given as “completely”. In addition, the “scar size, determined by histology” value in assay [3] (12 dpi, AFOG staining, vs control, FIG. 13K) is “not different”. Moreover, the “region of myocardium affected by ischemia, visualized by LGE” value in assay [3] (after MI, vs control, FIG. 13D, 13E) is “not different”. Besides, the relative systolic thickening entry in assay [3] (after MI, vs control, FIG. 13J) is reported as “higher”. The “higher cardiomyocyte endowment after MI” value in assay [3] (determined by stereology, vs control, FIG. 13L) is listed as 30%. Further, in assay [3] (propranolol 10 μg/g, 2 i.p. injections per day, P1-12, P42, FIG. 13A), the “increased cardiomyocyte endowment in adult hearts at baseline” value is given as “persisted until adulthood”. Also, the “cardiac function (ejection fraction) of adult hearts at baseline” value in assay [3] (propranolol P1-12, P60, FIG. 13B) is on record as “did not alter”. Moreover, the “thinned region of the LV myocardium after myocardial infarction” value in assay [3] (recovery phase, vs control, FIG. 13H, 13I) is listed as “significantly smaller”. Further, the MRI-measured ejection fraction in assay [3] (twelve days after MI (recovery phase), FIG. 13F, 13G) came to 42%. Besides, in assay [3] (two days after MI (acute phase), FIG. 13D, 13E), the “infarct size by late gadolinium-enhancement vs control” value is listed as “same”. Moreover, the “ejection fraction (MRI) vs control” value in assay [3] (two days after MI (acute phase), FIG. 13F, 13G) is reported as “same”. Moreover, the “heart weight (heart weight to body weight ratio) after MI” value in assay [3] (vs control, FIG. 13M) is recorded as “not changed”.
